From PubChem BioAssay AID1918995 (Molecular Pharmacology Branch, DTP, NCI, 2023)
Values belong to the compound of their own block, whether it stands above or below them.

System: 324938-238-R-J1-PDC complex spheroid growth, % test/control
Experiment: Anticancer human tumor 324938-238-R-J1-PDC patient-derived bladder carcinoma cell line growth inhibition [AhR]
Settings: for IC50: curve of first compound; for viability, T/C: stronger effect = lower value
From the text: Multicellular complex tumor spheroid response to aryl hydrocarbon receptor antagonists in combination with a variety of drugs and investigational agents in selected tumor cell lines
The current study was undertaken to assess response to aryl hydrocarbon receptor antagonists in combination with standard-of-care drugs and investigational agents in solid tumor complex spheroid models. Complex spheroids include a stromal component modeled by human endothelial cells (HUVEC) and fibroblasts modeled by human mesenchymal stem cells (MSCs). The concentration ranges selected for each drug and investigational agent were based upon clinically achievable concentrations if the clinical Cmax of the agent was known.
Compounds. The drugs and investigational agents: BAY 2416964 (NSC825713), GNF351 (NSC835774), CH-223191 (NSC835775), CPI-455 (NSC825282), aza-TdCyd (NSC777586), decitabine (NSC127716), belinostat (NSC758774), entinostat (NSC756642), pevonedistat (NSC761192), tazemetostat (NSC777109), talazoparib (NSC765396), olaparib (NSC753686), selinexor (NSC780203), nedisertib (M3814, NSC802822), bortezomib (NSC756655), venetoclax (NSC766270), doxorubicin (NSC123127), elimusertib (BAY189344, NSC800525), ceralasertib (AZD6738, NSC777638), TAK-243 (NSC785004), alisertib (NSC759677), etoposide (NSC141540), topotecan (NSC609699), eribulin (NSC707389), gemcitabine (NSC613327), carboplatin (NSC241240), cisplatin (NSC119875), and SN-38 (NSC673596) were obtained from the National Cancer Institute (NCI) Developmental Therapeutics Program Chemical Repository (32). The FDA-approved anticancer drug set is available from the Developmental Therapeutics Program at https://dtp.cancer.gov/organization/dscb/obtaining/available plates.htm. […] The stock solutions were prepared in dimethyl sulfoxide (DMSO, Sigma-Aldrich, St. Louis, MO, cat. D2650), except for the platinum compounds which were prepared in saline (Quality Biological, Gaithersburg, MD, cat. 114-055-101), at 800-fold the tested concentration and stored at -70 degrees C prior to their use. All drugs and investigational agents were tested over a range starting from a high concentration at or near the clinical Cmax and decreasing in half-log increments. If the clinical Cmax for an agent had not been determined, the highest concentration tested was 10 microM (Table 1).
Cell Culture. All cells were maintained in an incubator at 37 degrees C and 5% CO2 with 95% humidity. The PDC lines were cultured according to standard operating procedures established by the NCI PDMR (https://pdmr.cancer.gov). Briefly, all PDCs were thawed and cultured in Matrigel-coated flasks prepared with a working solution of 1X Ham's F-12 nutrient mix, without supplementation (Invitrogen, Waltham, MA, cat. 11765054), 100 U/mL penicillin-streptomycin (Invitrogen, cat. 15140122), and 2.5% Matrigel (Corning Inc., Corning, NY, cat. 354248) for the first three passages. All PDCs were cultured in complete DMEM/F-12 media containing advanced DMEM/F-12 (Invitrogen, cat. 12634028), 4.9% defined fetal bovine serum, heat inactivated (HyClone Laboratories Inc., Logan, UT, cat. SH30070.03HI), 389 ng/mL hydrocortisone (Sigma-Aldrich, cat. H4001), 9.7 ng/mL human EGF recombinant protein (Invitrogen, cat. PHG0313), 23.4 microg/mL adenine (Sigma-Aldrich, cat. A2786), 97.3 U/mL penicillin-streptomycin (Invitrogen, cat. 15140122), 1.9 mM L-glutamine (Invitrogen, cat. 25030081), and 9.7 microM Y-27632 dihydrochloride (Tocris Bioscience, Bristol, United Kingdom, cat. 1254). The PDCs were cultured in complete DMEM/F12 media without 10 microM Y-27632 dihydrochloride for at least two passages prior to the screen. The established cell lines NCI-H1341 and […] were cultured in DMEM/F-12, HEPES (Invitrogen, cat. 11330032), 5% defined fetal bovine serum (HyClone Laboratories Inc., cat. SH30070.03), ITS premix universal culture supplement [insulin (5 microg/mL), transferrin (5 microg/mL), and selenious acid (5 ng/mL)] […]

[1] = second compound 0.1 µM, first compound 0.00316 µM
[2] = second compound 0.1 µM, first compound 0.01 µM
[3] = second compound 0.1 µM, first compound 0.0316 µM
[4] = second compound 0.1 µM, first compound 0.1 µM
[5] = second compound 0.316 µM, first compound 0.00316 µM
[6] = second compound 0.316 µM, first compound 0.01 µM
[7] = second compound 0.316 µM, first compound 0.0316 µM
[8] = second compound 0.316 µM, first compound 0.1 µM
[9] = second compound 1 µM, first compound 0.00316 µM
[10] = second compound 1 µM, first compound 0.01 µM
[11] = second compound 1 µM, first compound 0.0316 µM
[12] = second compound 1 µM, first compound 0.1 µM
[13] = second compound 3.16 µM, first compound 0.00316 µM
[14] = second compound 3.16 µM, first compound 0.01 µM
[15] = second compound 3.16 µM, first compound 0.0316 µM
[16] = second compound 3.16 µM, first compound 0.1 µM
[17] = second compound 10 µM, first compound 0.00316 µM
[18] = second compound 10 µM, first compound 0.01 µM
[19] = second compound 10 µM, first compound 0.0316 µM
[20] = second compound 10 µM, first compound 0.1 µM
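Further: spheroids exposed to agents for seven days before viability read.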

IC50 (second compound 0.1 µM): 284 nM | IC50 (second compound 0.316 µM): 254 nM | IC50 (second compound 1 µM): > 300 nM | IC50 (second compound 3.16 µM): 139 nM | IC50 (second compound 10 µM): > 300 nM
SMILES: Nc1ncn(C2CC(O)C(CO)S2)c(=O)n1 (stereo not given) + CC(CO)NC(=O)c1cc(-c2ccc(Cl)cc2)nn(-c2cnn(C)c2)c1=O
viability, T/C (second compound 0.1 µM, first compound 0.000949 µM): 99.4% | viability, T/C (second compound 0.1 µM, first compound 0.003 µM): 93.2% | viability, T/C (second compound 0.1 µM, first compound 0.00949 µM): 90.7% | viability, T/C (second compound 0.1 µM, first compound 0.03 µM): 84% | viability, T/C (second compound 0.1 µM, first compound 0.0949 µM): 69.4% | viability, T/C (second compound 0.1 µM, first compound 0.3 µM): 49% | viability, T/C (second compound 0.316 µM, first compound 0.000949 µM): 93.9% | viability, T/C (second compound 0.316 µM, first compound 0.003 µM): 88.4% | viability, T/C (second compound 0.316 µM, first compound 0.00949 µM): 78.1% | viability, T/C (second compound 0.316 µM, first compound 0.03 µM): 78.7% | viability, T/C (second compound 0.316 µM, first compound 0.0949 µM): 64.2% | viability, T/C (second compound 0.316 µM, first compound 0.3 µM): 46.5% | viability, T/C (second compound 1 µM, first compound 0.000949 µM): 91.9% | viability, T/C (second compound 1 µM, first compound 0.003 µM): 89.6% | viability, T/C (second compound 1 µM, first compound 0.00949 µM): 90.5% | viability, T/C (second compound 1 µM, first compound 0.03 µM): 69.4% | viability, T/C (second compound 1 µM, first compound 0.0949 µM): 59.1% | viability, T/C (second compound 1 µM, first compound 0.3 µM): 54.2% | viability, T/C (second compound 3.16 µM, first compound 0.000949 µM): 75.1% | viability, T/C (second compound 3.16 µM, first compound 0.003 µM): 75.4% | viability, T/C (second compound 3.16 µM, first compound 0.00949 µM): 70.3% | viability, T/C (second compound 3.16 µM, first compound 0.03 µM): 58% | viability, T/C (second compound 3.16 µM, first compound 0.0949 µM): 57% | viability, T/C (second compound 3.16 µM, first compound 0.3 µM): 41.6% | viability, T/C (second compound 10 µM, first compound 0.000949 µM): 64.6% | viability, T/C (second compound 10 µM, first compound 0.003 µM): 72.6% | viability, T/C (second compound 10 µM, first compound 0.00949 µM): 57.1% | viability, T/C (second compound 10 µM, first compound 0.03 µM): 65.2% | viability, T/C (second compound 10 µM, first compound 0.0949 µM): 52.5% | viability, T/C (second compound 10 µM, first compound 0.3 µM): 53.3%

IC50 (second compound 0.1 µM): > 1000 nM | IC50 (second compound 0.316 µM): > 1000 nM | IC50 (second compound 1 µM): > 1000 nM | IC50 (second compound 3.16 µM): > 1000 nM | IC50 (second compound 10 µM): < 3.16 nM
SMILES: Nc1ncn(C2CC(O)C(CO)O2)c(=O)n1 (stereo not given) + Cc1cncc(-c2nc(NCCc3c[nH]c4ccccc34)c3ncn(C(C)C)c3n2)c1
viability, T/C [1]: 120% | viability, T/C [2]: 86.4% | viability, T/C [3]: 101% | viability, T/C [4]: 85.2% | viability, T/C (second compound 0.1 µM, first compound 0.316 µM): 128% | viability, T/C (second compound 0.1 µM, first compound 1 µM): 103% | viability, T/C [5]: 111% | viability, T/C [6]: 103% | viability, T/C [7]: 135% | viability, T/C [8]: 92.9% | viability, T/C (second compound 0.316 µM, first compound 0.316 µM): 80.8% | viability, T/C (second compound 0.316 µM, first compound 1 µM): 161% | viability, T/C [9]: 93.4% | viability, T/C [10]: 107% | viability, T/C [11]: 127% | viability, T/C [12]: 125% | viability, T/C (second compound 1 µM, first compound 0.316 µM): 84.8% | viability, T/C (second compound 1 µM, first compound 1 µM): 98.2% | viability, T/C [13]: 83.5% | viability, T/C [14]: 76.6% | viability, T/C [15]: 104% | viability, T/C [16]: 76.9% | viability, T/C (second compound 3.16 µM, first compound 0.316 µM): 100% | viability, T/C (second compound 3.16 µM, first compound 1 µM): 112% | viability, T/C [17]: 4.98% | viability, T/C [18]: 1.77% | viability, T/C [19]: 6.15% | viability, T/C [20]: 3.98% | viability, T/C (second compound 10 µM, first compound 0.316 µM): 4.54% | viability, T/C (second compound 10 µM, first compound 1 µM): 7.74%

IC50 (second compound 0.1 µM): > 100 nM | IC50 (second compound 0.316 µM): 91.9 nM | IC50 (second compound 1 µM): > 100 nM | IC50 (second compound 3.16 µM): 60.6 nM | IC50 (second compound 10 µM): 18.7 nM
SMILES: Cn1ncnc1C1c2n[nH]c(=O)c3cc(F)cc(c23)NC1c1ccc(F)cc1 (stereo not given) + CC(CO)NC(=O)c1cc(-c2ccc(Cl)cc2)nn(-c2cnn(C)c2)c1=O
viability, T/C (second compound 0.1 µM, first compound 0.000316 µM): 93.4% | viability, T/C (second compound 0.1 µM, first compound 0.001 µM): 107% | viability, T/C [1]: 87.1% | viability, T/C [2]: 76.3% | viability, T/C [3]: 61.4% | viability, T/C [4]: 58.5% | viability, T/C (second compound 0.316 µM, first compound 0.000316 µM): 83.5% | viability, T/C (second compound 0.316 µM, first compound 0.001 µM): 92.8% | viability, T/C [5]: 92.7% | viability, T/C [6]: 81.7% | viability, T/C [7]: 62.9% | viability, T/C [8]: 48.9% | viability, T/C (second compound 1 µM, first compound 0.000316 µM): 76.8% | viability, T/C (second compound 1 µM, first compound 0.001 µM): 82.2% | viability, T/C [9]: 79.2% | viability, T/C [10]: 69.6% | viability, T/C [11]: 61% | viability, T/C [12]: 53.5% | viability, T/C (second compound 3.16 µM, first compound 0.000316 µM): 67.6% | viability, T/C (second compound 3.16 µM, first compound 0.001 µM): 71.9% | viability, T/C [13]: 71% | viability, T/C [14]: 61.5% | viability, T/C [15]: 52.1% | viability, T/C [16]: 47.3% | viability, T/C (second compound 10 µM, first compound 0.000316 µM): 67.3% | viability, T/C (second compound 10 µM, first compound 0.001 µM): 65.8% | viability, T/C [17]: 60.7% | viability, T/C [18]: 53% | viability, T/C [19]: 44.5% | viability, T/C [20]: 43%
